# What was measured:
# [1] = intraperitoneal injection of 1 mg/kg daily for 28 days, F344 rats; cited from earlier work
# blood cancer HL-60 cells = conditions: 5 uM, cultured for 48 hours; cited from earlier work
# [2] = tested on: novel coronavirus (SARS-COV-2); assay: Vero E6 cells plaque assay of SARS-COV-2 replication; format: cell-based
# [3] = tested on: peripheral white blood cells; conditions: cited from earlier work
smiles,measurement,setting,value
"C/C=C/C=C/C/C=C\CCCCCCCCCc1cc(O)ccc1O [HQ17(3), 10′(Z), 13′(E), 15′(E)-Heptadecatrienyl hydroquinone]",toxicity in rats,[1],no toxicity was observed
same,replication of HL-60 cells,blood cancer HL-60 cells,the replication of blood cancer HL-60 cells was stopped
same,virus inhibition rate (viral plaques),"[2]; 10 uM HQ17(3), stock in 0.1% DMSO, Vero E6 cells, one week",more than 60%
same,EC50,"[2]; Severe acute respiratory syndrome coronavirus 2, Vero C1008, 168 h, read-out: EC50, inhibition of SARS-COV-2 replication in cells by 50%",8.5 ± 0.96 µM
same,effect on peripheral white blood cells,[3]; 5 uM,no effect on peripheral white blood cells
same,toxicity on peripheral white blood cells,[3]; 50 uM,no toxicity on peripheral white blood cells was observed

# — patent US20250057785A1, “APPLICATION OF 10'(Z), 13'(E), 15'(E)-HEPTADECATRIENYL HYDROQUINONE (HQ17(3)) IN TREATING CORONAVIRUS INFECTION” (National Atomic Research Institute, priority 2023, published 2025)
